Here are results for 21 compounds from the SangsterLogP compilation.

One series is described as follows: method code SF-AS, from DOI: 10.1248/cpb.33.2403, PMID: 4064199.
For the compound `NC(=O)OCCc1c[nH]c2ccccc12`, the logP – broadly, a log measure of how a compound divides between an organic and an aqueous phase – is 1.69. Consider `CN(C)C(=O)OCCCc1cccnc1`, for which the logP came to 1.44. Still for that read-out and setting: as for `CCN(CC)C(=O)OCCc1c[nH]c2ccccc12`, the figure is 3.3; as for `NC(=O)OCCCc1cccnc1`, 0.46. `CCN(CC)C(=O)OCC(C)C` had a logP of 2.82. Still for that read-out and setting: with `NC(=O)OCc1ccc(Cl)cc1` the figure was 1.97. Still for that read-out and setting: with `CCN(CC)C(=O)OCc1ccccc1` the figure was 2.93; with `CNC(=O)OCc1ccccc1`, 1.68; with `NC(=O)OCCCc1ccccc1`, 1.96. Still for that read-out and setting: with `CN(C)C(=O)OCCc1c[nH]c2ccccc12` the figure was 2.54. The compound `NC(=O)OCCc1ccccc1` gave a log partition coefficient (logP) of 1.5. On the same count and under the same terms, as for `CCN(CC)C(=O)OCCc1ccccc1`, the figure is 3.2; as for `CC(C)OC(=O)N(C)C`, 1.38. Still for that read-out and setting: as for `CN(C)C(=O)OCCCc1ccccc1`, the figure is 2.93.

For the compound `CN(C)C(=O)OCCc1ccccc1`, the logP amounted to 2.4.

Compound `CCC(CC)COC(=O)N(C)C` returned a logP of 2.87. Still for that read-out and setting: as for `CCC(CC)COC(N)=O`, the figure is 1.98.

A further series can be described thus: method code SF-HPLC, from DOI: 10.1248/cpb.33.2403, PMID: 4064199.
For `CCC(CC)COC(=O)N(CC)CC`, the logP is 3.6. Same read-out and setting: with `CC(Cc1ccccc1)OC(=O)N(C)C` (stereo unspecified) the figure was 2.6.

The next series in a line: method code SF-GLC, from DOI: 10.1248/cpb.33.2403, PMID: 4064199.
As for `CC(C)COC(N)=O`, the logP came out at 0.98. Still for that read-out and setting: with `CC(C)COC(=O)N(C)C` the figure was 2.
